Source: US20080194922A1, “POTENTIATION FOR MEDICAL THERAPIES” (priority 2005, published 2008)

Assays:
[1] = system: cat with multiple myeloma; assay: Delta Correlation Function analysis of dexamethasone dose versus food intake, cat myeloma model; type: in vivo; conditions: for normalized DCF, food intake versus dexamethasone dose: 1 day off
Description: The inventive method was used to analyze changes from day to day. The data was digitized by substituting either +1 for positive change (dayn+i greater than dayn), 0 (zero) for no change, and −1 for negative change (dayn+i less than dayn). Digitizing the change magnifies small changes by giving small differences the same value as large differences. For example, a positive change is noted as +1 whether the change is 1 milligram or 10 grams.
The inventive method multiplied a digitized change in therapy element by the corresponding digitized change in correlation factor to produce a correlation product. Because the digitized changes are signed (+ or −), changes in the same direction (both positive or both negative) produce a positive product. Changes in opposite directions (one negative and one positive) produce a negative product. The inventive method then provided a rolling average of correlation products over fixed period of time. (A positive average indicates a positive correlation between dose and result.)
There is a phase or timing relationship that should be considered. FIG. 15, drawn to the same scale as FIG. 14, illustrates an eighteen day rolling average of correlation product with a one day offset for the change in food intake. That is, the food intake on dayn+i minus the food intake on dayn is multiplied by the dose on dayn minus the dose on dayn—i. In FIGS. 12-14, the product is the food intake on dayn minus the food intake on dayn—i multiplied by the dose on dayn minus the dose on dayn—i.
Because of the delayed effect of some therapies, the invention provides for an “offset,” or staggering, of the corresponding therapy elements and correlation factors that are multiplied to obtain the normalized Delta Correlation Function (DCF).
A method provided by the invention was used to optimize the dexamethasone regimen based on the correlation factor food intake (i.e., determined the dexamethasome regimen that produces an increase in food intake.) Again, the cat myeloma model was used. […] The normalized DCF was calculated based upon a 24 time point sample (Days 445 to 469) with various offsets.

[2] = system: cat with multiple myeloma; assay: System Functions (linear regression of dexamethasone dose versus food intake) and test of dexamethasone regimens, cat myeloma model; type: in vivo
Description: Based on the foregoing analysis, 3 different dexamethasone regimens where designed and hypothesized systems functions were formulated for predicting the impact of a regimen on food intake. […] In general, the system functions are in the form of:
Predicted Food Intake Dayn (tsp)=(dexamethasone dose Dayn) (mg)×Factor Dayn (tsp/mg);
Predicted Food Intake Dayn+1 (tsp)=[(dexamethasone dose Dayn+1) (mg)×Factor Dayn+1 (tsp/mg)]+Predicted Food Intake Dayn;
Predicted Food Intake Dayn+2 (tsp)=[(dexamethasone dose Dayn+2) (mg)×Factor Dayn+2 (tsp/mg)]+Predicted Food Intake Dayn+1;
wherein “Dayn” is the first day of a three to six day dosing cycle and, if the dexamethasone dose is 0.00, this value is converted to 1.00. “Factor Dayn” is regimen specific and was determined by linear regression analysis of the correlation between dexamethasone dose and food intake performed separately for days 1, 2, and 3 of the cycle a given regimen. For example, all first day dexamethasone administrations were identified in the past data. Food intake for those days were compared to the food intake the day before and averaged, then divided by the dose of dexamethasone for each first day (((Food Intake Dayn (tsp)−Dayn−1 (tsp))/number of first days)/dexamethasone Dayn).
The system functions were used to predict the results with three dexarnethasone regimens. Regimen 1 employs a dosing schedule of 0.250 mg dexamethasone 2 days on and then 1 day off.

[3] = system: multiple myeloma in a cat; assay: Narrow therapeutic band established by potentiating the therapy of multiple myeloma in a cat
[4] = thalidomide 1.6 mg, in combination with the other elements of the potentiating protocol

C[C@@H]1C[C@H]2[C@@H]3CCC4=CC(=O)C=C[C@]4(C)[C@@]3(F)[C@@H](O)C[C@]2(C)[C@@]1(O)C(=O)CO [dexamethasone]
normalized DCF, food intake versus dexamethasone dose ([1]; 0.175 mg/day, 2 days on, Days 445 to 469 (24 time points), same day basis (no offset)): −0.16
normalized DCF, food intake versus dexamethasone dose ([1]; 0.175 mg/day, 2 days on, Days 445 to 469, 2 day offset): +0.37
normalized DCF, food intake versus dexamethasone dose ([1]; 0.175 mg/day, 2 days on, Days 445 to 469, 3 day offset): −0.09
normalized DCF, food intake versus dexamethasone dose ([1]; 0.175 mg/day, 2 days on, Days 445 to 469, food intake offset by 1 day): −0.21
time required for the dexamethasone therapeutic effect to develop ([1]; 0.375 mg, 1 day on, 1 day off regimen): approximately 1 day
normalized DCF, food intake versus dexamethasone dose ([1]; 0.375 mg, 1 day on, Days 37 to 61, 1 day offset): +0.5
normalized DCF, food intake versus dexamethasone dose ([1]; 0.375 mg, 1 day on, Days 37 to 61, same day): −0.52
Factor Dayn of System Function (food intake per dexamethasone dose) ([2]; Regimen 1 (0.250 mg 2 days on, 1 day off), Dayn): −5.11 tsp/mg
Factor Dayn+1 of System Function ([2]; Regimen 1, Dayn+1): 8.57 tsp/mg
Factor Dayn+2 of System Function ([2]; Regimen 1, Dayn+2 (day off, dose 0.00 converted to 1.00)): 2.23 tsp/mg
food intake reached ([2]; Regimen 1: 0.250 mg dexamethasone 2 days on, 1 day off, physiologic limit): 15.5 tsp per day
Factor Dayn of System Function ([2]; Regimen 2 (0.250 mg 2 days on, then 1 day at 0.125 mg), Dayn): −5.11 tsp/mg
Factor Dayn+1 of System Function ([2]; Regimen 2, Dayn+1): 8.57 tsp/mg
Factor Dayn+2 of System Function ([2]; Regimen 2, Dayn+2 (0.125 mg)): −0.53 tsp/mg
Factor Dayn of System Function ([2]; Regimen 3 (0.125 mg every day, six day cycle), Dayn): −5.11 tsp/mg
Factor Dayn+1 of System Function ([2]; Regimen 3, Dayn+1): 8.57 tsp/mg
Factor Dayn+2 of System Function ([2]; Regimen 3, Dayn+2): −0.53 tsp/mg
Factor Dayn+3 of System Function ([2]; Regimen 3, Dayn+3): −0.10 tsp/mg
Factor Dayn+4 of System Function ([2]; Regimen 3, Dayn+4): 3.89 tsp/mg
Factor Dayn+5 of System Function ([2]; Regimen 3, Dayn+5): −1.72 tsp/mg
side effects at minimum dose ([3]; dexamethasone 0.125 mg (modulated 2 days on, 1 day off), in combination with the other elements of the protocol): without significant side effects
adverse side effects above end point of narrow band ([3]; dexamethasone doses above 0.162 mg, such as thromboses and peripheral neuropathy): increased

O=C1CCC(N2C(=O)c3ccccc3C2=O)C(=O)N1 (centres unmarked) [thalidomide]
side effects at minimum dose [3, 4]: without significant thalidomide side effects or resistance
therapeutic effect at minimum dose [3, 4]: controlled the disease
therapeutic effect above end point of narrow band ([3]; thalidomide doses above 1.8 mg): not increased
adverse side effects above end point of narrow band ([3]; thalidomide doses above 1.8 mg, such as peripheral neuropathy): increased
